Data reported in patent US20210290742A1, “METHODS OF USING LYSINE DEACETYLASE (KDAC) INHIBITION TO GENERATE ANTIGEN SPECIFIC MEMORY T CELL RESPONSES FOR DURABLE IMMUNOTHERAPY” (ARIZONA BOARD OF REGENTS ON BEHALF OF THE UNIVERSITY OF …, priority 2018, published 2021).

Tests used:
[1] = system: TCR proximal signaling (Lck, Zap70, PKCθ phosphorylation); assay: Western blot of early TCR signaling proteins (p-Lck, p-Zap70, p-PKCθ) in antigen stimulated CD8+ T cells; type: cell-based, murine; details: TSA pre-treatment 30 minutes 2.5 ng/ml, vs Ag alone
Experimental: (§1) Lysates from naïve OT-1 cells served as a control (N). Cell lysates were prepared at 0, 15, 60, or 120 minutes post-stimulation and analyzed for p-LcK^Tyr394, p-Zap70, p-PKCe and β-tubulin levels by Western blot analysis. […] The normalized values at indicated time-points are plotted. […] Naïve (shaded histograms, antigen alone (solid line histogram) and antigen plus TSA (histogram indicated by arrow). Error bars are the standard error of mean (SEM) values obtained from three independent experiments. Naïve OT-1 T cells were pre-treated with TSA for 30 minutes and then stimulated with Ag (microspheres bearing H-2K^b/cognate 8 amino acid peptide/B7-1), (h: hour: N: Naïve; A: Ag; A+T: Ag+TSA).
(§2) Examples 1-0 were obtained from a murine transgenic model, from which in vitro stimulated naïve cells were isolated from TCR transgenic mice (OT-1/Rag -/-). In brief, the CD8+ T cells obtained from nave TCR transgenic mice (OT-1/Rag -/-) mice were stimulated in vitro with latex microspheres on which major histocompatibility complex (MHC) Class I (H-2Kb) dimers bearing 10 nM of cognate peptide (Ag) were immobilized, along with 1 μg/ml of recombinant murine […] (co-stimulation) and 2 ng/ml of rmIL-12 (cytokine) (FIG. 1).
(§3) Western blot analysis was conducted to compare the level of phosphorylation of early TCR signaling proteins, Lck, Zap70, and PKCθ, by TSA pre-treatment of antigen stimulated CD8+ T cells. […] Since, the energy sensitive kinase mTORC1 serves as an integrative node for extracellular signals that initiate naïve CD8+ T cells activation, the mTORC1 activity was assessed by measuring the phosphorylation state of the mTORC1 target ribosomal […] (p-S6) by intracellular flow cytometry (FIG. 3D).

[2] = system: antigen stimulated CD8+ T cells; assay: Clonal expansion of antigen stimulated CD8+ T cells; type: cell-based, murine; details: TSA 2.5 ng/ml
mTORC1 = mTORC1 activity by intracellular flow cytometry of pS6K in antigen stimulated CD8+ T cells; type: cell-based, murine; details: TSA pretreatment, 4 and 8 hours post-antigen stimulation of naïve OT-1 T cells
Experimental: as §1
(§4) Examples 1-0 were obtained from a murine transgenic model, from which in vitro stimulated naïve cells were isolated from TCR transgenic mice (OT-1/Rag -/-). […]
as §3

[3] = system: antigen stimulated CD8 High and CD8 Low T cells; assay: mTORC1 activity, cell cycle and proliferation of FACS sorted CD8 High and CD8 Low cells at 48 h; type: cell-based, murine; details: total 48 hours
Experimental: Gating strategies and growth profiles of antigen alone (Ag) or TSA induced antigen (Ag+TSA) at 48 hours are shown for CD8 High and CD8 Low populations. Ag and Ag+TSA CD8+ T-cell cultures were FACS sorted on the basis of CD8α expression. […] Solid line histograms represent Ag or Ag+TSA CD8 or High cells and shaded histograms are unstimulated naïve CD8+ T cells. […] Solid line histograms represent Ag or Ag+TSA CD8 Low or High cells and shaded histograms are unstimulated naïve CD8+ T cells. […] Error bars are the standard error of mean (SEM) values obtained from three independent experiments. (h: hour; hi: high; lo: low).
as §2
To determine the implications of the TSA-mediated tuned percentage of CD8 expression on the growth profile, of these cells, the 24 hours Ag and Ag # TSA CD8+ T cells were separated by FACS sorting on the basis of their CD8 expression (FIGS. 5A-5H).

[4] = system: naïve CD8+ (OT-I) T cells; assay: Antigen-induced early activation of naïve CD8+ (OT-I) T cells, CD69/CD62L surface staining by flow cytometry; type: cell-based, murine; details: pre-treatment with TSA 2.5 ng/ml, antigen stimulation 4 hours, vs antigen alone
Experimental: KDAC inhibition with TSA at 2.5 ng/ml differentially regulates early activation phenotype of antigen stimulated CD8+ T cells. […] Naïve cells (control) are presented in shaded histograms, and antigen stimulated cells (Ag) are shown by the solid line histogram. […] The results shown are representative of five independent experiments with identical outcomes. (N: Naîve; A; Ag; A+T: Ag+TSA).
as §4
Cognate antigen presented by MHC Class 1 to irate CD8+ T cells in the context of co-stimulation and cytokine leads to rapid (2-4 hours) increases in CD69 expression and decreases in CD62L, which indicate antigen induced early T cell activation response. To characterize early activation of T cells, naïve CD8+(OT-I) T cells were reacted with antigen (Ag; latex microspheres bearing H-2Kb-Fc+/8 amoni acid cognate peptide/rmB7-1) in vitro for 4 hours, cell surface was stained for […] and CD69 expression and evaluated by flow cytometry. […]

[5] = system: IL-2 gene expression in Human Jurkat cells; assay: qPCR analysis of antigen-induced IL-2 gene expression in Jurkat T cells; type: cell-based; details: anti-CD3/anti-CD28 stimulated Jurkat T cells, 30 min to 16 h, presence vs absence of TSA
Experimental: IL-2 gene expression is shown in FIG. 11 in stimulated Jurkat T cells in presence or absence of ISA. Cells were incubated on the anti-CD3/anti-CD28 (stimulatory) or anti-CD45 (non-stimulatory) antibody coated chamber slides for 30 min to 16 h, then the total RNA was extracted and performed qPCR analysis of 1L-2 expression. Data shown are the mean fold change of ±SD of three independent experiments. Error bars represent standard deviations. *, statistically significant (p<0.05) and **, p=0.0071 with respect to the values obtained in the presence of TSA. ns, non-significant. (h: hour).
(§5) Examples 9-10 were obtained from human Jurkat cell line. Jurkat T cells were […]

[6] = system: antigen stimulated CD8+ T cells; assay: CD8 expression asymmetry in antigen stimulated CD8+ T cells at 24 h; type: cell-based, murine; details: TSA pre-treated, within 24 h, vs Ag alone
Experimental: Results shown are representative of three independent experiments with identical outcomes. (h: hour; hi high; lo; low).
as §2
Accumulating evidence implicates a deterministic role for cellular asymmetry in antigen induced CD8+ T cells division and functional maturation. The KDACi-mediated reduced TCR signaling and mTOR activity were examined to determine their effect on the induction of inherent asymmetry produced in antigen stimulated CD8+ T cells (FIGS. 4A-4D). […] This could be attributed to the lower threshold of early activation/TCR signaling cues available to the TSA primed CD8+ T cells.

Human Jurkat T cells = assay: Early CD69 expression on stimulated Jurkat T cells; type: cell-based; details: TSA 10 ng/ml, anti-CD3/anti-CD28 stimulation, 2 and 4 hours
Experimental: Human Jurkat T Cells were incubated with anti-CD3/anti-0028 (Ag) in the presence or absence of TSA 10 ng/ml) or anti-CD45/CD28 (unstimulated) antibody mated chamber slides for indicated time points. The cells were harvested, counted and stained for CD69. […] FIGS. 10C and 10D show the percentage (% CD69) and their relative Mean Fluorescence intensity (MFI) at 2 and 4 hours, respectively (h: hour).
as §5

CC(/C=C/C(=O)NO)=C\[C@@H](C)C(=O)c1ccc(N(C)C)cc1 [TSA, Trichostatin A]
phosphorylation of Zap70 ([1]; 60 minutes): reduction
phosphorylation of PKCθ ([1]; 120 minutes): reduction
phosphorylation of Lck ([1]; by 15 minutes): dampened
clonal expansion [2]: reduces clonal expansion
mTORC1 activity (S6Kp) (mTORC1): dampened mTORC1 activity
mTORC1 activity (S6Kp) in CD8 Hi cells ([3]; Ag+TSA CD8 Hi vs Ag alone CD8 Hi): higher
cell cycle phase of CD8 High cells ([3]; Ag+TSA CD8 High vs Ag CD8 Hi): enter S phase, comparable to the Ag CD8 Hi cells
cell cycle phase of CD8 Low cells ([3]; Ag+TSA CD8 Low vs Ag CD8 Low): retained in the G0-G1 phase of cell cycle and do not enter the S phase
mTORC1 activity (S6Kp) in CD8 Low cells ([3]; Ag+TSA CD8 Low vs Ag CD8 Low): reduced
CD62L shedding [4]: increases CD62L shedding
CD69 expression [4]: reduces antigen dose dependent CD69 expression
IL-2 gene expression [5]: reduces IL-2 gene expression
proportion of cells with increased expression of CD8 [6]: lesser proportion of cells to have increased expression of CD8 as compared to Ag alone
early antigen stimulation (CD69 expression) (Human Jurkat T cells): dampens early antigen stimulation of Jurkat T cells
